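Dose response: 5 concentrations. Exposure: 48 h. Format: 96-well plates. Endpoint: linear interpolation; highest concentration if not reached. GI50 marks 50% less growth. The concentration for full growth arrest is given as TGI.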
Key:
Experiment in all cases: NCI-60 cell line screen, 48 h
SW-620 colon = system: SW-620 colon
SK-MEL-28 melanoma = system: SK-MEL-28 melanoma
NCI-H23 lung = system: NCI-H23 lung
ACHN renal = system: ACHN renal
OVCAR-5 ovarian = system: OVCAR-5 ovarian
CCRF-CEM leukemia = system: CCRF-CEM leukemia
EKVX NSCLC = system: EKVX NSCLC
SNB-75 CNS = system: SNB-75 CNS
KM12 colon = system: KM12 colon
SF-268 CNS = system: SF-268 CNS

Row | SMILES | TGI (SW-620 colon) [µM] | TGI (SK-MEL-28 melanoma) [µM] | TGI (NCI-H23 lung) [µM] | TGI (ACHN renal) [µM] | TGI (OVCAR-5 ovarian) [µM] | TGI (CCRF-CEM leukemia) [µM] | TGI (EKVX NSCLC) [µM] | TGI (SNB-75 CNS) [µM] | TGI (KM12 colon) [µM] | TGI (SF-268 CNS) [µM] | GI50 (SF-268 CNS) [µM] | GI50 (SW-620 colon) [µM] | GI50 (SK-MEL-28 melanoma) [µM] | GI50 (NCI-H23 lung) [µM] | GI50 (ACHN renal) [µM] | GI50 (OVCAR-5 ovarian) [µM] | GI50 (EKVX NSCLC) [µM] | GI50 (SNB-75 CNS) [µM] | GI50 (KM12 colon) [µM]
1 | C1CCC(OCc2nnn3c2CCC3)OC1 (stereo unspecified) | > 100 | > 100 | > 100 | > 100 | > 100 | > 100 | > 100 | > 100 | > 100 |  |  |  |  |  |  |  |  |  | 
2 | Cc1ccc(S(=O)(=O)N2c3ccccc3[C@H]3CCc4c([nH]c5ccccc45)[C@H]32)cc1 | > 100 | > 100 | > 100 | > 100 | > 100 | > 100 | > 100 | > 100 | > 100 | > 100 |  |  |  |  |  |  |  |  | 
3 | CC(C)OC(=O)Nc1cccc(Cl)c1 | > 100 | > 100 | > 100 | > 100 | > 100 | > 100 | > 100 | > 100 | > 100 | > 100 |  |  |  |  |  |  |  |  | 
4 | Nc1nc(Cl)cc(NCCCNc2cc(Cl)nc(N)n2)n1 | > 100 | > 100 | > 100 |  | > 100 | > 100 | > 100 | > 100 | > 100 | > 100 |  |  |  |  |  |  |  |  | 
5 | Cn1cc(-c2csc(-c3cn(C)c4ccc(Br)cc34)n2)c2cnccc21 | 3.48 | 3.3 | 3.65 | 3.4 | 3.22 |  | 3.48 | 2.6 | 3.69 | 3.67 | 1.9 | 1.85 | 1.85 | 1.93 | 1.97 | 1.78 | 1.86 | 1.28 | 1.97
6 | CS/C(C#N)=C(\C#N)SC | > 100 | 37.7 | 79.4 | 29.9 | > 100 | > 100 | 62.2 | > 100 | 37.7 | 58 |  |  |  |  |  |  |  |  | 
7 | c1ccc(CSC2(SCc3ccccc3)CCCC2)cc1 | > 10 | > 10 | > 10 | > 10 | > 10 | > 10 | > 10 | > 10 | > 10 | > 10 |  |  |  |  |  |  |  |  | 
8 | CN1C(=O)CN2C(Cl)(Cl)C2(c2ccccc2F)c2cc([N+](=O)[O-])ccc21 (stereo unspecified) | > 100 | > 100 | > 100 | > 100 | > 100 | > 100 | > 100 | > 100 | > 100 | > 100 |  |  |  |  |  |  |  |  | 
9 | CC(N)C(=O)OCN1C(=O)C2C3C=CC(C2C1=O)C1C2C(=O)N(COC(=O)C(C)N)C(=O)C2C31 (stereo unspecified) | 47.4 | 41.4 | 43.2 | 70.4 | > 100 | 67.2 | > 100 | 85.5 | 41.6 | 47.9 |  |  |  |  |  |  |  |  | 
10 | Cc1cccc(O)c1-c1nnc(CCCCCCCCc2nnc(-c3c(C)cccc3O)n2N)n1N | > 100 | > 100 | > 100 | > 100 | > 100 | 37.1 | > 100 | > 58.1 | > 100 | > 100 |  |  |  |  |  |  |  |  | 
11 | O=c1oc2ccccc2n1P(=O)(n1c(=O)oc2ccccc21)n1c(=O)oc2ccccc21 | > 100 | > 100 | > 100 | > 100 | > 100 | > 100 | > 100 | > 100 | > 100 | > 100 |  |  |  |  |  |  |  |  | 
12 | C[C@H]1C(=O)O[C@@H]1[C@H]1COC(C)(C)O1 | > 100 | > 100 | > 100 | > 100 | > 100 | > 100 | > 100 | > 100 | > 100 | > 100 |  |  |  |  |  |  |  |  | 
13 | NC(=O)c1ccc(NS(=O)(=O)c2ccc(N)cc2)nc1 | > 100 | > 100 | > 100 | > 100 | > 100 | > 100 | > 100 | > 100 | > 100 | > 100 |  |  |  |  |  |  |  |  | 
